The numbers were not newly measured in patent US20110117194A1, “PHARMACEUTICAL FORMULATION CONTAINING ANGIOTENSIN-II RECEPTOR BLOCKER” (priority 2008, published 2011), which cites them from elsewhere.

On to `CCCCc1nc(Cl)c(CO)n1Cc1ccc(-c2ccccc2-c2nn[nH]n2)cc1` [losartan], for which the “time to peak blood concentration” value (active losartan molecule released into blood) is no more than 1 h. The plasma clearance rate (in vivo) is 600 mL/min.
